We go through 17 compounds from patent publication EP4796548A1, “PROTEOLYSIS-TARGETING CHIMERA COMPOUND FOR DEGRADING IRAK4 AND USE THEREOF” (Dovetree Medicines Unus, Inc., priority 2023, dated 2025).

The target in experiment [1] is T1, IRAK4 (Homo sapiens, UniProt Q9NWZ3).
T1 sequence (Q9NWZ3 1-460): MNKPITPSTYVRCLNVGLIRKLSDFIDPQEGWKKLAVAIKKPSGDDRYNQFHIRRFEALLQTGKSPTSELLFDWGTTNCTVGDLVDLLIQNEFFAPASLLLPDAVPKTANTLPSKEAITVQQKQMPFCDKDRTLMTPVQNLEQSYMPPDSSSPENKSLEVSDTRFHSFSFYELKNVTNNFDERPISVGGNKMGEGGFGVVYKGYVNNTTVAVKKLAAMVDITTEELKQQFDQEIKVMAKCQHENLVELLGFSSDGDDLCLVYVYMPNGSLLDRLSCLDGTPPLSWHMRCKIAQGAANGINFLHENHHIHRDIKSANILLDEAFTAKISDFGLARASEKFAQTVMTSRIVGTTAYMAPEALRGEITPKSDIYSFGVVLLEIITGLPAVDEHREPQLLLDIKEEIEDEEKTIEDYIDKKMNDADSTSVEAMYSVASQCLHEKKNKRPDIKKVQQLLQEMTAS
The experiment can be described thus: detection of proteolysis by Hibit fluorescence (IRAK4 degradation). The class given is cell-based. Set-up: host or cells: HEK293T cells (ATCC). The following applies: for Dmax: HEK-293T; for DC50: Hibit, HEK293T cells transfected with HiBiT-tagged IRAK4 plasmid, 24 hours incubation. As to the method: Using the HiBiT tag technology, the sequence containing the HiBiT tag (Seq. ID. No. 1, 5'-[…]-3', Beijing Tsingke Biotech Co., Ltd.) was ligated to the IRAK4 plasmid (Seq. ID. No. 2, 5'-Eco[…] NOT1-3', Beijing Tsingke Biotech Co., Ltd.). The plasmid was transfected into HEK293T cells (ATCC), and the HiBiT […] was measured to characterize the compound-induced IRAK4 degradation. 300,000 HEK293T cells in 1 mL of DMEM medium (Gbico, 11965-092) were seeded into a 6-well plate (Corning 3516) , followed by being placed overnight in a constant incubator at 37°C, 5% CO2. 3 µL X-tremeGENE™ 9 DNA Transfection Reagent (Roche #06365787001), and 1 µg IRAK4 plasmid were added to 200 µL Opti-MEM (Gibico 31985062), followed by gentle mixing. The 6-well plate that had been incubated overnight was taken out and allowed to stand at room temperature for 15 minutes, followed by dropwise addition to the 6-well plate. After transient transfection for 6 hours, cells were digested with trypsin (Gibco, 25200-056) for one minute, followed by centrifugation at 1000 rpm for 3 minutes. 5000 HEK293T cells in 40 µL DMEM medium were seeded into a 384-well plate (Corning 3765), followed by being placed overnight in a constant incubator at 37°C, 5% CO2. Then, 40 nL of the compound was added to the 384-well plate using an Echo 655 Liquid Handler, with a highest final concentration of 10 µM, and a 1:3 serial dilution to give a total of 10 concentrations, followed by incubation at 37°C, 5% CO2 for 24 hours. The 384-well plate was removed and equilibrated to room temperature. 40 µL Nano-Glo® HiBiT Lytic Detection System (Promega N3030) was added to each well. After incubation at room temperature for 15 minutes, the fluorescence values were recorded using EnVision Xcite Multilabel Reader (PerkinElmer 2105-0020). Data were fitted and analyzed using Prism 9.3 software with non-linear regression (non-liner inhibitor(Bell-shaped)) and a 4 parameter, with parameters as follows: • Span1=Plateau1[…] • Span2=Plateau2-Dip Section1 = Span1/(1+10^(∧)((LogEC50_1−X)*nH1)) [formula] Section2 = Span2/(1+10^(∧)((X−LogEC50_2)*nH2)) [formula]
(§1) The equation is as follows: Y=Dip+Section1+Section2.
(With HiBiT, luminescence reflects the tagged protein that the partner subunit can reach.)

Experiment [2] deals with T1, IRAK4. Nature of the experiment: cell-based. The following applies: for Dmax: THP-1; for DC50: WB, THP-1 cells, 24 hours incubation. The class given is cell-based. On the set-up: endogenous in cells; host or cells: THP-1 cells. As to the method:
The degradation level of IRAK4 in THP-1 cells was detected by Western Blot technique. 1,000,000 THP-1 cells were seeded in a 12-well plate (Corning 3513) with 1 mL per well. A stock solution of the compound in 1000× gradient dilution was prepared, with a maximum concentration of 300 µM, and serially diluted with DMSO in 1:3, for a total of 9 doses. The compound in 1000× gradient dilution was added to the 12-well plate with 1 µL per well. After incubation under a condition of 37°C, 5% CO2 for 24 hours, the cells were collected into a 2 mL centrifuge tube, and centrifuged at 5,000 rpm for 5 minutes. The supernatant was discarded. 100 µL RIPA lysis solution (Beyotime, P0013C) was added. After mixing well, the cells were lysed on ice for 10 min, and centrifuged at 14,000 rpm at 4°C for 10 min. The supernatant was collected. Protein content was determined using BCA (Solarbio, PC0020-10*50T). 75 µL of the supernatant was taken, and 25 µL NuPAGE LDS Sample Buffer (4X) (Thermo B0007) (with 5% β-mercaptoethanol added before use) was added to each tube to prepare samples, followed by heating in a metal bath at 100°C for 5 min. 20 µL was loaded into a 4-12% Bis-Tris gel (Invitrogen, WG1402BOX) to prepare 1x NuPAGE™ MOPS buffer (Invitrogen, NP0001). The electrophoresis apparatus was set to a constant voltage of 120V for 1.5 hours. 1x NuPAGE™ MOPS SDS electrophoresis buffer (20X) (Invitrogen, NP0001) was prepared. The electrophoresis apparatus was set to a constant current of 300 mA for 100 minutes. The protein was transferred to a PVDF membrane (Millipore, IPVH00010). The PVDF membrane was blocked with a blocking solution (Licor, 927-60001) at room temperature for 1 h, IRAK4 antibody (Abcam ab32511) was diluted 1:1,000, GAPDH (Abcam ab8245) was diluted 1:3,000, and then the antibody was incubated overnight at 4°C. The next day, the membrane was washed three times with 1× TBST (Elabscience E-BC-R335), for 5 min each time. Secondary antibodies IR Dye 800 CW Goat anti-rabbit (Licor #926-32211) and IRDye® 680RD Goat anti-Mouse (Licor #926-68070) were diluted 1:10,000, followed by incubation in the dark at room temperature for 1 h. The membrane was washed three times with TBST, for 5 min each time. Using Odyssey imaging system Li-cor Odyssey Clx, signals were detected and data were analyzed. Data were analyzed using GraphPad (Prism 9.3) software with non-linear regression (non-liner inhibitor(Bell-shaped)) and a 4 parameter, with parameters as follows: • Span 1 =Plateau1-Dip • Span2=Plateau2-Dip Section1 = Span1/(1+10^(∧)((LogEC50_1−X)*nH1)) [formula] Section2 = Span2/(1+10^(∧)((X−LogEC50_2)*nH2)) [formula]
as §1

Turning to `Cn1c(=O)n(C2CCC(=O)NC2=O)c2cccc(N3CCC4(CCN(C[C@H]5CC[C@H](n6nc(C(F)F)c7cc(-c8ccc9cc(C(N)=O)cnn89)ncc76)CC5)CC4)CC3)c21` (some centres unmarked) [Compound 1], at IRAK4 [1], the Dmax is > 80% and the DC50 is < 0.0005 µM. On IRAK4 [2], the Dmax is > 70% and the DC50 is < 0.01 µM.
On the same counts, the results for `Cn1c(=O)n(C2CCC(=O)NC2=O)c2cccc(N3CCC(N4CCN(C[C@H]5CC[C@H](n6nc(C(F)F)c7cc(-c8ccc9cc(C(N)=O)cnn89)ncc76)CC5)CC4)CC3)c21` (some centres unmarked) [Compound 2] are > 80%, < 0.0005 µM, > 70% and < 0.01 µM.
Take `Cn1c(=O)n(C2CCC(=O)NC2=O)c2cccc(N3CCC4(CCN(C[C@H]5CC[C@H](n6nc(C(F)F)c7cc(-c8ccc9cc(C(N)=O)cnn89)ncc76)CC5)CC4)C3)c21` (some centres unmarked) [Compound 3]: on IRAK4 [1], the Dmax fell in the range of 70 to 80% and the DC50 is < 0.0005 µM.
Taken in the same sequence, the figures for `Cn1c(=O)n(C2CCC(=O)NC2=O)c2cccc(N3CCN(C[C@H]4CC[C@H](n5nc(C(F)F)c6cc(-c7ccc8cc(C(N)=O)cnn78)ncc65)CC4)CC3)c21` (some centres unmarked) [Compound 4] were < 60% and 0.001 to 0.005 µM.
On to `Cn1c(=O)n(C2CCC(=O)NC2=O)c2cccc(N3CCN(C4CCN(C[C@H]5CC[C@H](n6nc(C(F)F)c7cc(-c8ccc9cc(C(N)=O)cnn89)ncc76)CC5)CC4)CC3)c21` (some centres unmarked) [Compound 5], for which, on IRAK4 [1], the Dmax is > 80% and the DC50 is < 0.0005 µM. For the same compound, at IRAK4 [2], the Dmax lay in the range of 60 to 70% and the DC50 is < 0.01 µM.
Regarding `Cn1c(=O)n(C2CCC(=O)NC2=O)c2cccc(N3CCC4(CCN(C[C@H]5CC[C@H](n6nc(C(F)F)c7cc(-c8ccc9cc(C(N)=O)cnn89)ncc76)CC5)C4)CC3)c21` (some centres unmarked) [Compound 6], on IRAK4 [1], the Dmax is > 80% and the DC50 is < 0.0005 µM. At IRAK4 [2], the Dmax is > 70% and the DC50 was < 0.01 µM.
As to `Cn1c(=O)n(C2CCC(=O)NC2=O)c2cccc(N[C@H]3CC[C@H](N(C)C[C@H]4CC[C@H](n5nc(C(F)F)c6cc(-c7ccc8cc(C(N)=O)cnn78)ncc65)CC4)CC3)c21` (some centres unmarked) [Compound 7], on IRAK4 [1], the Dmax was 60 to 70% and the DC50 is < 0.0005 µM.
Take `Cn1c(=O)n(C2CCC(=O)NC2=O)c2cccc(C#CCOC3CCN(C[C@H]4CC[C@H](n5nc(C(F)F)c6cc(-c7ccc8cc(C(N)=O)cnn78)ncc65)CC4)CC3)c21` (some centres unmarked) [Compound 8]: at IRAK4 [1], the Dmax lay within 70 to 80% and the DC50 is < 0.0005 µM.
Consider `C[C@H]1CN(c2cccc3c2n(C)c(=O)n3C2CCC(=O)NC2=O)CCN1C[C@H]1CC[C@H](n2nc(C(F)F)c3cc(-c4ccc5cc(C(N)=O)cnn45)ncc32)CC1` (some centres unmarked) [Compound 9], for which the DC50 on IRAK4 [2] (read-out: DC50) was > 0.03 µM.
With `Cn1nc(C2CCC(=O)NC2=O)c2cccc(-c3cnn(C4CCN(C[C@H]5CC[C@H](n6nc(C(F)F)c7cc(-c8ccc9cc(C(N)=O)cnn89)ncc76)CC5)CC4)c3)c21` (some centres unmarked) [Compound 10], at IRAK4 [2], the Dmax was > 70% and the DC50 is < 0.01 µM.
For the compound `Cn1c(=O)n(C2CCC(=O)NC2=O)c2cccc(-c3cnn(C4CCN(C[C@H]5CC[C@H](n6nc(C(F)F)c7cc(-c8ccc9cc(C(N)=O)cnn89)ncc76)CC5)CC4)c3)c21` (some centres unmarked) [Compound 11], at IRAK4 [2], the Dmax is < 60% and the DC50 was > 0.03 µM.
For `C[C@@H]1CN(C2CCN(c3cccc4c3n(C)c(=O)n4C3CCC(=O)NC3=O)CC2)CCN1C[C@H]1CC[C@H](n2nc(C(F)F)c3cc(-c4ccc5cc(C(N)=O)cnn45)ncc32)CC1` (some centres unmarked) [Compound 12], on IRAK4 [2], the Dmax is 60 to 70% and the DC50 was > 0.03 µM.
Taken in the same sequence, the figures for `C[C@H]1CN(C2CCN(c3cccc4c3n(C)c(=O)n4C3CCC(=O)NC3=O)CC2)CCN1C[C@H]1CC[C@H](n2nc(C(F)F)c3cc(-c4ccc5cc(C(N)=O)cnn45)ncc32)CC1` (some centres unmarked) [Compound 13] were > 70% and > 0.03 µM.
Taken in the same sequence, the figures for `C[C@@H]1CC2(CCN(c3cccc4c3n(C)c(=O)n4C3CCC(=O)NC3=O)CC2)CN1C[C@H]1CC[C@H](n2nc(C(F)F)c3cc(-c4ccc5cc(C(N)=O)cnn45)ncc32)CC1` (some centres unmarked) [Compound 17] were > 70% and > 0.03 µM.
Taken in the same sequence, the figures for `Cn1nc(C2CCC(=O)NC2=O)c2cccc(N3CCC(N4CCN(C[C@H]5CC[C@H](n6nc(C(F)F)c7cc(-c8ccc9cc(C(N)=O)cnn89)ncc76)CC5)CC4)CC3)c21` (some centres unmarked) [Compound 19] were > 70% and < 0.01 µM.
In the case of `Cn1nc(C2CCC(=O)NC2=O)c2cccc(N3CCC4(CCN(C[C@H]5CC[C@H](n6nc(C(F)F)c7cc(-c8ccc9cc(C(N)=O)cnn89)ncc76)CC5)C4)CC3)c21` (some centres unmarked) [Compound 20], at IRAK4 [2], the Dmax is < 60% and the DC50 was in the range of 0.01 to 0.03 µM.
Taken in the same sequence, the figures for `C[C@H]1CN(C[C@H]2CC[C@H](n3nc(C(F)F)c4cc(-c5ccc6cc(C(N)=O)cnn56)ncc43)CC2)CCN1C1CCN(c2cccc3c2n(C)c(=O)n3C2CCC(=O)NC2=O)CC1` (some centres unmarked) [Compound 22] were < 60% and > 0.03 µM.
